Among the data in patent US7309708B2, “Hepatitis C virus inhibitors” (priority 2003, dated 2007) are EC50 and IC50 values, retold here.

For test [1], the system named is HCV replicon (strain 1b) in Huh7 cells. Nature of the test: microbe, parasite or virus in culture. The conditions noted are these: Hepatitis C virus, Huh-7, 96 h; Huh7 cells expressing HCV replicon, 4 days; activity range class. The class given is cell-based. An excerpt: This system enabled us to evaluate the effects of our HCV Protease compounds on HCV RNA replication. Briefly, using the HCV strain 1b sequence described in the Lohmann paper (Assession number: AJ238799), an HCV cDNA was generated encoding the 5′ internal ribosome entry site (IRES), the neomycin resistance gene, the EMCV (encephalomyocarditis virus)-IRES and the HCV nonstructural proteins, NS3-NS5B, and 3′ non-translated region (NTR). In vitro transcripts of the cDNA were transfected into the human hepatoma cell line, Huh7. […] Resulting cell lines were characterized for positive and negative strand RNA production and protein production over time.
Huh7 cells, constitutively expressing the HCV replicon, were grown in Dulbecco's Modified Eagle Media (DMEM) containing 10% Fetal calf serum (FCS) and 1 mg/ml G418 (Gibco-BRL). Cells were seeded the night before (1.5×10^4 cells/well) in 96-well tissue-culture sterile plates. Compound and no compound controls were prepared in DMEM containing 4% FCS, 1:100 Penicillin/Streptomysin, 1:100 L-glutamine and 5% DMSO in the dilution plate (0.5% DMSO final concentration in the assay). Compound/DMSO mixes were added to the cells and incubated for 4 days at 37° C. After 4 days, plates were rinsed thoroughly with Phosphate-Buffered Saline (PBS) (3 times 150 μl). The cells were lysed with 25 μl of a lysis assay reagent containing the FRET peptide (RET S1, as described for the in vitro enzyme assay). The lysis assay reagent was made from 5× cell Luciferase cell culture lysis reagent (Promega #E153A) diluted to 1× with distilled water, NaCl added to 150 mM final, the FRET peptide diluted to 10 μM final from a 2 mM stock in 100% DMSO. The plate was then placed into the Cytofluor 4000 instrument which had been set to 340 nm excitation/490 nm emission, automatic mode for 21 cycles and the plate read in a kinetic mode. EC50 determinations were carried out as described for the IC50 determinations.
The replicon construct described for our FRET assay was modified by replacing the resistance gene neomycin with the Blasticidin-resistance gene fused to the N-terminus of the humanized form of Renilla luciferase (restriction sites Asc1/Pme1 used for the subcloning). […] The luciferase reporter assay was set up by seeding huh7 cells the night before at a density of 2×10^6 cells per T75 flask. Cells were washed the next day with 7.5 ml Opti-MEM. Following the Invitrogen protocol, 40 μl DMRIE-C was vortexed with 5 ml Opti-MEM before adding 5 μg HCV reporter replicon RNA. The mix was added to the washed huh7 cells and left for 4 h at 37° C. In the mean time, serial compound dilutions and no compound controls were prepared in DMEM containing 10% FCS and 5% DMSO in the dilution plate (0.5% DMSO final concentration in the assay). Compound/DMSO mixes were added to each well of a 24-well plate. After 4 h, the transfection mix was aspirated, and cells washed with 5 ml of Opti-MEM before trypsinization. Trypsinized cells were resuspended in 10% DMEM and seeded at 2×10^4 cells/well in the 24-well plates containing compound or no compound controls. Plates were incubated for 4 days. After 4 days, media was removed and cells washed with PBS. 100 μl 1× Renilla Luciferase Lysis Buffer (Promega) was immediately added to each well and the plates either frozen at −80° C. for later analysis, or assayed after 15 min of lysis. Lysate (40 μl) from each well was transferred to a 96-well black plate (clear bottom) followed by 200 μl 1× Renilla Luciferase assay substrate. Plates were read immediately on a Packard TopCount NXT using a luminescence program.
The values were graphed and analyzed using XLFit to obtain the EC50 value.
(In general: In antiviral work, replicon cells carry a viral genome segment that copies itself.)

For test [2], the target named is T1, HCV NS3/4A protease complex (BMS strain) (UniProt P27958).
T1 construct: for H77 and J4L6S; fused on or other part: Probably a three-lysine solubilising tail at the C-terminus of NS4A and a His tag from pET21b (Ni-NTA purification); These are printed for the H77 and J4L6S constructs and only inferred for BMS
Nature of the test: Recombinant HCV NS3/4A protease complex FRET peptide assay (BMS strain). The class given is biochemical, Hepatitis C virus (genotype 1a. The conditions noted are these: read-out: IC50 (uuM); NS3/4A BMS strain; activity range class. An excerpt:
Serum from an HCV-infected patient was obtained from Dr. T. Wright, San Francisco Hospital. An engineered full-length cDNA (compliment deoxyribonucleic acid) template of the HCV genome (BMS strain) was constructed from DNA fragments obtained by reverse transcription-PCR (RT-PCR) of serum RNA (ribonucleic acid) and using primers selected on the basis of homology between other genotype 1a strains.
The H77 and J4L6S strains were used for production of recombinant NS3/4A protease complexes. […] Briefly, a three-lysine solubilizing tail was added at the 3′-end of the NS4A coding region. […] Briefly, the NS3/4A protease complex expression was induced with 0.5 millimolar (mM) Isopropyl β-D-1-thiogalactopyranoside (IPTG) for 22 hours (h) at 20° C. […] The cells were resuspended in lysis buffer (10 mL/g) consisting of 25 mM N-(2-Hydroxyethyl)Piperazine-N′-(2-Ethane Sulfonic acid) (HEPES), pH 7.5, 20% glycerol, 500 mM Sodium Chloride (NaCl), 0.5% Triton X-100, 1 microgram/milliliter (“μg/mL”) lysozyme, 5 mM Magnesium Chloride (MgCl2), 1 gg/ml DnaseI, 5 mM β-Mercaptoethanol (βME), Protease inhibitor—Ethylenediamine Tetraacetic acid (EDTA) free (Roche), homogenized and incubated for 20 minutes (min) at 4° C. The homogenate was sonicated and clarified by ultra-centrifugation at 235000 g for 1 h at 4° C. Imidazole was added to the supernatant to a final concentration of 15 mM and the pH adjusted to 8.0. The crude protein extract was loaded on a Nickel-Nitrilotriacetic acid (Ni-NTA) column pre-equilibrated with buffer B (25 mM HEPES, pH 8.0, 20% glycerol, 500 mM NaCl, 0.5% Triton X-100, 15 mM imidazole, 5 mM βME). The sample was loaded at a flow rate of 1 mL/min. The column was washed with 15 column volumes of buffer C (same as buffer B except with 0.2% Triton X-100). The protein was eluted with 5 column volumes of buffer D (same as buffer C except with 200 mM Imidazole).
NS3/4A protease complex-containing fractions were pooled and loaded on a desalting column Superdex-S200 pre-equilibrated with buffer D (25 mM HEPES, pH 7.5, 20% glycerol, 300 mM NaCl, 0.2% Triton X-100, 10 mM βME). Sample was loaded at a flow rate of 1 mL/min. NS3/4A protease complex-containing fractions were pooled and concentrated to approximately 0.5 mg/ml.
The enzyme was stored at −80° C., thawed on ice and diluted prior to use in assay buffer. […] The sequence of this peptide is loosely based on the NS4A/NS4B natural cleavage site for the HCV NS3 protease except there is an ester linkage rather than an amide bond at the cleavage site. The peptide substrate was incubated with one of the three recombinant NS3/4A protease complexes, in the absence or presence of a compound of the present invention, and the formation of fluorescent reaction product was followed in real time using a Cytofluor Series 4000.
Assay buffer: 50 mM HEPES, pH 7.5; 0.15 M NaCl; 0.1% Triton; 15% Glycerol; 10 mM βME. Substrate: 2 μM final concentration (from a 2 mM stock solution in DMSO stored at −20° C.). HCV NS3/4A protease type 1a (1b), 2-3 nM final concentration (from a 5 μM stock solution in 25 mM HEPES, pH 7.5, 20% glycerol, 300 mM NaCl, 0.2% Triton-X100, 10 mM βME).
The assay was performed in a 96-well polystyrene black plate from Falcon. Each well contained 25 μl NS3/4A protease complex in assay buffer, 50 μl of a compound of the present invention in 10% DMSO/assay buffer and 25 μl substrate in assay buffer. A control (no compound) was also prepared on the same assay plate.

T1 sequence (P27958 1027-1657, one chain of several): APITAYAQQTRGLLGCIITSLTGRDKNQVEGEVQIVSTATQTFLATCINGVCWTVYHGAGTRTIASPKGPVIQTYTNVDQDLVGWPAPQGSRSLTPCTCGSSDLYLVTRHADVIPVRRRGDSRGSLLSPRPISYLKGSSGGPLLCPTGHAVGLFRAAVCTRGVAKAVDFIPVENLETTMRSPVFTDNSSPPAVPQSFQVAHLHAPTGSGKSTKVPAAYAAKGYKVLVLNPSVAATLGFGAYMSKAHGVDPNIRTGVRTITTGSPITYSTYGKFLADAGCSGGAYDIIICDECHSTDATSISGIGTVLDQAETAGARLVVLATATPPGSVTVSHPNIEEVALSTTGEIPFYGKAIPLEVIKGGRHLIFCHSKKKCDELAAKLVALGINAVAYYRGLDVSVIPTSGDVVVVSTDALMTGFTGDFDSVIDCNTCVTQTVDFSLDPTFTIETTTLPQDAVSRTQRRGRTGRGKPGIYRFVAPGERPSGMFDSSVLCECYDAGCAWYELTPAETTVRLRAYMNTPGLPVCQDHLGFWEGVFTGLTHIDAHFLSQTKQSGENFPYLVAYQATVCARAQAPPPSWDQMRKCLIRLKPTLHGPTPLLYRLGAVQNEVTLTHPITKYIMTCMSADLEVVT

The EC50 is the concentration that produces a half-maximal response. Read a high EC50 as lower potency in that assay. As usually defined, the IC50 is the midpoint of a concentration-inhibition curve. For `C=C[C@@H]1C[C@]1(NC(=O)[C@@H]1C[C@@H](Oc2nccc3cc(OC)ccc23)CN1C(=O)[C@@H](NC(=O)OC(C)(C)C)C(C)(C)C)C(=O)NS(=O)(=O)c1cn(C)cn1` [Compound 1005], the EC50 in test [1] fell in the range of 1 to 10 µM. Also, the IC50 in test [2] was in the range of 1 to 10 µM.
In test [1], `C=C[C@@H]1C[C@]1(NC(=O)[C@@H]1C[C@@H](Oc2nccc3cc(OC)ccc23)CN1C(=O)[C@@H](NC(=O)OC(C)(C)C)C(C)(C)C)C(=O)NS(=O)(=O)c1sc(C)nc1C` [Compound 1003] showed an EC50 of 0.1 to 1 µM. In addition, in test [2], the IC50 was 0.1 to 1 µM.
With `C=C[C@@H]1C[C@]1(NC(=O)[C@@H]1C[C@@H](Oc2nccc3cc(OC)ccc23)CN1C(=O)[C@@H](NC(=O)OC(C)(C)C)C(C)(C)C)C(=O)NS(=O)(=O)c1c(C)noc1C` [Compound 1012], the IC50 in test [2] was 1 to 10 µM.
`C=C[C@@H]1C[C@]1(NC(=O)[C@@H]1C[C@@H](Oc2nccc3cc(OC)ccc23)CN1C(=O)[C@@H](NC(=O)OC(C)(C)C)C(C)(C)C)C(=O)NS(=O)(=O)c1c(C)nn(C)c1Cl` [Compound 1004] showed an EC50 in test [1] of 0.1 to 1 µM. In test [2], the IC50 fell in the range of 0.1 to 1 µM.
In test [1], `C=C[C@@H]1C[C@]1(NC(=O)[C@@H]1C[C@@H](Oc2nccc3cc(OC)ccc23)CN1C(=O)[C@@H](NC(=O)OC(C)(C)C)C(C)(C)C)C(=O)NS(=O)(=O)c1cc(Cl)c(Cl)s1` [Compound 1001] yielded an EC50 of 1 to 10 µM. Further, the IC50 in test [2] is less than 0.1 µM.
In the same order, the values of `C=C[C@@H]1C[C@]1(NC(=O)[C@@H]1C[C@@H](Oc2nccc3cc(OC)ccc23)CN1C(=O)[C@@H](NC(=O)OC(C)(C)C)C(C)(C)C)C(=O)NS(=O)(=O)c1nnc(NC(C)=O)s1` [Compound 1011] are 1 to 10 µM and less than 0.1 µM.
In the same order, the values of `C=C[C@@H]1C[C@]1(NC(=O)[C@@H]1C[C@@H](Oc2nccc3cc(OC)ccc23)CN1C(=O)[C@@H](NC(=O)OC(C)(C)C)C(C)(C)C)C(=O)NS(=O)(=O)c1ccccc1` [Compound 1007] are 0.1 to 1 µM and less than 0.1 µM.
The molecule `C=C[C@@H]1C[C@]1(NC(=O)[C@@H]1C[C@@H](Oc2nccc3cc(OC)ccc23)CN1C(=O)[C@@H](NC(=O)OC(C)(C)C)C(C)(C)C)C(=O)NS(=O)(=O)c1cccs1` [Compound 1006] registered an EC50 in test [1] of 0.1 to 1 µM. Also, the IC50 in test [2] is less than 0.1 µM.
